In publication PMC10570359, “Dietary supplementation of cystinotic mice by lysine inhibits the megalin pathway and decreases kidney cystine content” (Scientific Reports, 2023):
Read-outs that look alike come from different tables or passages of the source.

Experiments:
megalin pathway [1] = test: LMW proteinuria / albuminuria in Ctns KO mice under 5x-dAA diets
Protocol: After 24-h adaptation in metabolic cages, urine was collected during the following 24 h in presence of 0.1% sodium azide and 1x-protease inhibitors (Thermo Scientific). When in metabolic cages, mice had free access to tap water and food. Blood was collected 2 days before starting the treatments and entry into metabolic cages (baseline) and at the sacrifice to obtain serum. Body weight was recorded before entering the metabolic cages. Urine and serum analyses were performed by the veterinary laboratory Appialab Srl (Rome, Italy). Urinary levels of CC16 were measured by the Mouse Clara Cell Protein 16 kit 96 T #EKU03200 (Biomatik) according to manufacturer’s instructions. Serum levels of cystatin-C were measured by the Mouse/Rat Cystatin C Quantitative ELISA #MSCTC0 (R&D Systems). […] Creatinine clearance was normalized by mouse body weight.

megalin = test: Confocal imaging of megalin localization in kidney proximal tubular cells of WT mice; assay type: in vivo; conditions: WT female mice, two weeks diet, kidney cortex
Protocol: Glom, glomerulus (no detectable megalin signal).
For immunofluorescence, antigen retrieval was promoted in citrate buffer, pH 6, at 95 °C for 20 min using a Lab Vision Pretreatment Module™ (Thermo Scientific). Tissue was permeabilized with PBS/0.3% Triton-X100 for 5 min, then for one further hour with 10% bovine serum albumin (BSA)/3% milk to block non-specific sites. Sections were incubated overnight at 4 °C with the following primary reagents in blocking buffer: sheep anti-megalin (1/800, kindly provided by Drs P. Verroust and R. Kozyraki, INSERM U968, Paris, F-75012, FR), rat anti-LAMP-1 (1/100; #1D4B, Hybridoma Bank), mouse anti-ezrin (1/100, #MS-661-P1, ThermoScientific), mouse anti-Ki67 (1/250, #556003, BD-Pharmingen), rabbit anti-human albumin (1/1000; Dako #A0001). After washing, sections were further incubated with the appropriate AlexaFluor-secondary antibodies for 1 h at room temperature in 10% BSA/0.3% Triton-X100 and mounted with Faramount aqueous mounting medium (Dako). Sections were imaged on a spinning disk confocal microscope using EC Plan-NeoFluar 40X/1.3 or 100x/1.4 Oil DIC objective (Cell Observer Spinning Disk; Zeiss).

[2] = Urinary and serum amino-acid concentration by mass spectrometry in Ctns KO mice; assay type: in vivo; conditions: for Urinary alanine / Urinary cystine / Urinary glycine: Ctns KO mice at 8 months of age, 24-h urine, mean ± SEM; for increase of cystinuria: vs control diet; for concentration at 2 months: n = 4
Protocol: (§1) Body weight was recorded before entering the metabolic cages. […] Creatinine clearance was normalized by mouse body weight.
Quantitative analysis of underivatized amino-acids in serum and urine samples was performed using the Amino Acids LC–MS/MS analysis Kit Jasem®. […] Equipment was controlled and data were analyzed using MassHunter Workstation (Agilent Technologies). The assay was validated for selectivity, specificity, linearity and limit of quantification, accuracy and precision, matrix effects and recovery, and stability.

NaPi-IIa and SGLT-2 = NaPi-IIa and SGLT-2 mRNA levels in Ctns KO mice kidneys; assay type: in vivo; conditions: Ctns KO mice kidneys at 8 months of age, fold-change viz control diet
Protocol: At cellular level, we assessed PT cell death linked to compensatory renewal, by measuring Ki-67 immunolabelling abundance, a validated proliferation index (Fig. 6a)[22]. […] At subcellular level, NaPi-IIa and SGLT-2 mRNA levels were measured as apical differentiation markers (Fig. 6b,c).
Figure 6 Effects of diets on selected PTC indices in Ctns KO mice kidneys at 8 months of age. (a) Proliferative events in PTCs were identified by Ki-67 immunolabelling in confocal images and scored over random fields to cumulative areas of 0.96 mm^2. […] For representative confocal images and proliferation events in all cortical compartments, see Supplemental Fig. 6. (b,c) Apical differentiation state. Expression levels of NaPi-IIa and SGLT-2 as representative apical PT transporters were calculated as ratios to the housekeeping gene, HPRT1, and presented as fold-change viz control diet.

[3] = Clinical urine and serum analyses in Ctns KO mice under 5x-dAA diets
From the text: We also attempted to further discriminate between luminal (competition for surface megalin binding) and intracellular metabolic effects (see Discussion) by comparing the effects of 5x-L-lysine to its stereoisomer, 5x-D-lysine. Unless stated otherwise, diets were initiated at 6 months-of-age, and mice were studied then euthanized at 8 months-of-age (2-months treatment). This time frame was selected for two reasons. First, in the mouse cystinosis model, this an appropriate window to evaluate the impact on PTC alterations based on changes in kidney cystine accumulation and overall function. […] Second, although primary prevention by earlier intervention (from 2-to-6 months-of-age) better mimics perinatal genetic megalin ablation, thus could be more efficient, secondary intervention (starting at 6 months-of-age), when disease becomes clinically apparent, is more relevant for further translational studies.
as §1

Ctns KO mice kidneys = test: Kidney cystine content in Ctns KO mice; assay type: in vivo; conditions: for mean kidney cystine at 8 months-of-age: Ctns KO female mice, diet from 6-to-8 months-of-age; for kidney cystine as percentage of mean control diet, pooled for 8 and 12 months-of-age: 2 and 6 months of treatment
Protocol: For this pilot study, we selected tissue accumulation of cystine as a clear and measurable outcome to quantify long-term interference of dAAs with the endocytic supply of disulfide-rich plasma proteins to kidney PTCs.
Mice were euthanized by cabon dioxide (CO2) inhalation. Dissected tissues were homogenized in 10 mM N-ethylmaleimide. Protein fraction was obtained after precipitation in 10% 5-sulfosalicylic acid and centrifugation at 20,000g for 20 min at 4 °C. Protein pellet was resuspended in 100 mM NaOH and assayed by the Bio-Rad Protein Assay according to manufacturer’s instructions. Supernatant (50 μl) was mixed with 50 μL of the internal standard solution (Cystine d6) and vortexed for 5 s; then the mixture was extracted with 200 μl of acetonitrile, vortexed for at least 30 s, then centrifuged at 13,000 rpm for 9 min. Liquid chromatography and mass spectrometry analysis was performed by a UHPLC Agilent 1290 Infinity II 6470 (Agilent Technologies) equipped with an ESI-JET-STREAM source operating in the positive ion (ESI +) mode. Equipment was controlled and data were analyzed using MassHunter Workstation (Agilent Technologies). The separation column was InfinityLab Poroshell 120 HILIC 1.9 μm 100 × 2.1 mm (Agilent Technologies). Validation of the method was performed basing on the US Food and Drug Administration (FDA) guideline for industry bioanalytical method validation (FDA 2013) and European Medicines Agency (EMA) guideline (EMA 2011). The assay was validated for selectivity, specificity, linearity and limit of quantification, accuracy and precision, matrix effects and recovery, and stability.

megalin pathway [4] = test: LMW proteinuria (urinary CC16) in WT mice under 5x-dAA diets; assay type: in vivo; conditions: WT C57Bl-6 mice, 3 weeks diet, vs control diet
Protocol: In a second experiment, 5x-D-lysine was compared to regular diet.
as §1

[5] = Ctns KO mice at 8 months of age, 2 months of treatment, urine, mean ± SEM
[6] = Ctns KO mice, daily urine collections
[7] = female, C57BL/6, mouse, in vivo, 2 months
[8] = Ctns KO mice at 8 months of age, 2 months of treatment, serum, mean ± SEM

NCCCC[C@H](N)C(=O)O [5x-L-lysine, L-lysine]
increase of microalbuminuria vs control diet (megalin pathway [1]; Ctns KO female mice, diet from 6-to-8 months of age): no detectable increase | Urine CC16/creatinine (megalin pathway [1]; [5]): 4314 ± 540.3 µg/g | Urine microalbumin/creatinine (megalin pathway [1]; [5]): 0.1 ± 0.0 mg/g | subcellular localization of megalin in PTCs (megalin): no relocation | Urinary alanine [2]: 639.6 ± 279.6 mM/M creatinine | Urinary cystine [2]: 504.5 ± 61.2 mM/M creatinine | Urinary glycine [2]: 881.0 ± 265.9 mM/M creatinine | urinary lysine concentration reached [2, 6]: ~ 25 mM | increase of cystinuria ([2]; Ctns KO mice): 8 fold | increase of argininuria [2, 7]: 25 fold | increase of lysinuria [2, 7]: 210 fold | concentration at 2 months ([2]; female, C57BL/6, mouse, in vivo, 6.5 g/kg/day, Ctns KO mice, read-out: serum lysine): 581 ± 15.5 µM | NaPi-IIa and SGLT-2 mRNA levels (apical differentiation markers) (NaPi-IIa and SGLT-2): significant yet limited benefit | Body weight ([3]; Ctns KO mice at 8 months of age, 2 months of treatment, mean ± SEM): 23.0 ± 0.9 g | Serum creatinine [3, 8]: 0.8 ± 0.1 (n = 9) mg/dL | Serum cystatin-C [3, 8]: 669.2 ± 33.2 ng/mL | Serum glucose [3, 8]: 169.1 ± 9.3 (n = 9) mg/dL | Serum phosphate [3, 8]: 10.1 ± 0.5 (n = 9) mg/dL | Serum urea [3, 8]: 58.3 ± 2.6 (n = 9) mg/dL | Daily creatinine output [3, 5]: 0.7 ± 0.1 mg/day | Diuresis [3, 5]: 2.8 ± 0.2 mL/day | Urine creatinine [3, 5]: 25.6 ± 2.5 mg/dL | Urine glucose/creatinine [3, 5]: 19.0 ± 4.6 g/g | Urine phosphate/creatinine [3, 5]: 2.3 ± 0.4 g/g | Urine urea/creatinine [3, 5]: 173.0 ± 15.2 g/g | mean kidney cystine at 8 months-of-age (Ctns KO mice kidneys): 83.6 ± 38.7 nmol hemi-cystine/mg kidney protein | kidney cystine as percentage of mean control diet, pooled for 8 and 12 months-of-age (Ctns KO mice kidneys; Ctns KO mice): significantly lower than control | cumulative decrease of kidney cystine accumulation (Ctns KO mice kidneys; Ctns KO mice, two-months treatment from 6-to-8 months of age): ~ twofold | increase of urinary excretion of CC16 (normalized for creatinine excretion) (megalin pathway [4]): 7 fold

N=C(N)NCCC[C@H](N)C(=O)O [5x-L-arginine, L-arginine]
Urine CC16/creatinine (megalin pathway [1]; [5]): 3151 ± 556.1 µg/g | subcellular localization of megalin in PTCs (megalin): no relocation | Urinary alanine [2]: 712.5 ± 216.9 mM/M creatinine | Urinary cystine [2]: 146.6 ± 43.7 mM/M creatinine | Urinary glycine [2]: 963.7 ± 218.1 mM/M creatinine | urinary arginine concentration reached [2, 6]: ~ 1 mM | increase of cystinuria ([2]; Ctns KO mice): twofold | increase of argininuria [2, 7]: 33 fold | concentration at 2 months ([2]; female, C57BL/6, mouse, serum, oral, 7.6 g/kg/day, Ctns KO mice, read-out: serum arginine): 137 ± 35 µM | NaPi-IIa and SGLT-2 mRNA levels (apical differentiation markers) (NaPi-IIa and SGLT-2): failed to protect | Calculated creatinine clearance ([3]; mouse, in vivo): 40.7 ± 3.5 µL/min | Serum creatinine ([3]; mouse, in vivo): 0.9 ± 0.1 mg/dL | Serum cystatin-C ([3]; mouse, in vivo): 1092 ± 56.5 ng/mL | Serum glucose ([3]; mouse, in vivo): 170.9 ± 9.5 mg/dL | Serum phosphate ([3]; mouse, in vivo): 9.7 ± 0.3 mg/dL | Serum urea ([3]; mouse, in vivo): 63.6 ± 3.8 mg/dL | Urine creatinine ([3]; mouse, in vivo): 22.1 ± 2.7 mg/dL | Urine glucose/creatinine ([3]; mouse, in vivo): 25.8 ± 4.0 g/g | Urine phosphate/creatinine ([3]; mouse, in vivo): 1.9 ± 0.2 g/g | Urine urea/creatinine ([3]; mouse, in vivo): 238.2 ± 17.3 g/g | mean kidney cystine at 8 months-of-age (Ctns KO mice kidneys): 90.0 ± 32.3 nmol hemi-cystine/mg kidney protein | kidney cystine as percentage of mean control diet, pooled for 8 and 12 months-of-age (Ctns KO mice kidneys; Ctns KO mice): without reaching statistical significance | increase of urinary excretion of CC16 (normalized for creatinine excretion) (megalin pathway [4]): did not detectably increase
